Test results as given in PMC7146755, “Structure-Guided Design and In-Cell Target Profiling of a Cell-Active Target Engagement Probe for PARP Inhibitors” (ACS Chemical Biology, 2020).

Assays:
[1] = target: T1, GST-tagged PARP6 (recombinant) (Homo sapiens, UniProt Q2NL67); experiment: competition of PARPYnD photoaffinity labeling, in-gel fluorescence and immunoblot; format: biochemical; settings: recombinant GST-PARP6 spiked into MDA-MB-468 lysate; […] nm UV
T1 construct: recombinant GST fusion with HRV3C site in the linker, 98 kDa; intact PARP6 71 kDa after cleavage

PARP1 (recombinant) = target: T2, PARP1 (recombinant) (Homo sapiens, UniProt P09874); experiment: fluorescence polarization competition binding
T2 construct: recombinant

[2] = target: T1, GST-tagged PARP6 (recombinant); experiment: fluorescence polarization competition binding
Excerpt: fluorescence polarization competition binding on GST-tagged PARP6 (recombinant) | IC50 of PARPYnD for PARP6 as determined by the in vitro binding assay

PARP2 (recombinant) = target: T3, PARP2 (recombinant) (Homo sapiens, UniProt Q9UGN5); experiment: fluorescence polarization competition binding
T3 construct: recombinant
T3 sequence (Q9UGN5 whole entry): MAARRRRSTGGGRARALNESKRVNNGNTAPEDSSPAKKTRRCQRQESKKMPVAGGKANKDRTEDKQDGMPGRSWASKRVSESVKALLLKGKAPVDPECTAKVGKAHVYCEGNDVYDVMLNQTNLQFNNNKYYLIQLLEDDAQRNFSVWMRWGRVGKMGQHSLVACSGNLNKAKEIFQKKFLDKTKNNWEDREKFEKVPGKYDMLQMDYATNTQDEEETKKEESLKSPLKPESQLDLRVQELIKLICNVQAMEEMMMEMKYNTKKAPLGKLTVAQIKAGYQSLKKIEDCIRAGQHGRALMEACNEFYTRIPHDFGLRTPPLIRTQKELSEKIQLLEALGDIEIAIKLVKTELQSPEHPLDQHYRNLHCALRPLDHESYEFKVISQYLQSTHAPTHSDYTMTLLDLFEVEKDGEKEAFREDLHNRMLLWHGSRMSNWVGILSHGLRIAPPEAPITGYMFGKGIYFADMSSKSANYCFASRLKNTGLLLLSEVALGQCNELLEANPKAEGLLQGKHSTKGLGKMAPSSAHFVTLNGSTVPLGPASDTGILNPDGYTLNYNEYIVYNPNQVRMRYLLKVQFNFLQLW

T1 sequence (Q2NL67 whole entry, the tested form may be a part): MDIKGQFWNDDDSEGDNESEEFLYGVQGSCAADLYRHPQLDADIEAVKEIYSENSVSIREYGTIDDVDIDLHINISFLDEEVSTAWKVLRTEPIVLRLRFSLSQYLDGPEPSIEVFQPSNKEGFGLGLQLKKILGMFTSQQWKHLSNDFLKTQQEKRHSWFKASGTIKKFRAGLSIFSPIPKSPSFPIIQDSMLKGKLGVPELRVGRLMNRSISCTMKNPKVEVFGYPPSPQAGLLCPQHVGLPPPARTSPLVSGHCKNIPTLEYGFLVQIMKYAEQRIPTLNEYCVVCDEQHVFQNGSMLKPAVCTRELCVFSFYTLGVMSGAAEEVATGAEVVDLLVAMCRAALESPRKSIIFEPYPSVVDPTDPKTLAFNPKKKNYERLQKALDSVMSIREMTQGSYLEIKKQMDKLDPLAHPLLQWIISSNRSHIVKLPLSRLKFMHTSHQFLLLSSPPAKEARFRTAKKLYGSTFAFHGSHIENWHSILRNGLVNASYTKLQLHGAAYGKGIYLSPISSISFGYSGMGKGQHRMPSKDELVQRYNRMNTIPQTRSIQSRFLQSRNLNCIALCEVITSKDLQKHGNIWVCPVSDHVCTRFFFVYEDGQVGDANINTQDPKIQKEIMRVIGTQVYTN
T2 sequence (P09874 2-1014): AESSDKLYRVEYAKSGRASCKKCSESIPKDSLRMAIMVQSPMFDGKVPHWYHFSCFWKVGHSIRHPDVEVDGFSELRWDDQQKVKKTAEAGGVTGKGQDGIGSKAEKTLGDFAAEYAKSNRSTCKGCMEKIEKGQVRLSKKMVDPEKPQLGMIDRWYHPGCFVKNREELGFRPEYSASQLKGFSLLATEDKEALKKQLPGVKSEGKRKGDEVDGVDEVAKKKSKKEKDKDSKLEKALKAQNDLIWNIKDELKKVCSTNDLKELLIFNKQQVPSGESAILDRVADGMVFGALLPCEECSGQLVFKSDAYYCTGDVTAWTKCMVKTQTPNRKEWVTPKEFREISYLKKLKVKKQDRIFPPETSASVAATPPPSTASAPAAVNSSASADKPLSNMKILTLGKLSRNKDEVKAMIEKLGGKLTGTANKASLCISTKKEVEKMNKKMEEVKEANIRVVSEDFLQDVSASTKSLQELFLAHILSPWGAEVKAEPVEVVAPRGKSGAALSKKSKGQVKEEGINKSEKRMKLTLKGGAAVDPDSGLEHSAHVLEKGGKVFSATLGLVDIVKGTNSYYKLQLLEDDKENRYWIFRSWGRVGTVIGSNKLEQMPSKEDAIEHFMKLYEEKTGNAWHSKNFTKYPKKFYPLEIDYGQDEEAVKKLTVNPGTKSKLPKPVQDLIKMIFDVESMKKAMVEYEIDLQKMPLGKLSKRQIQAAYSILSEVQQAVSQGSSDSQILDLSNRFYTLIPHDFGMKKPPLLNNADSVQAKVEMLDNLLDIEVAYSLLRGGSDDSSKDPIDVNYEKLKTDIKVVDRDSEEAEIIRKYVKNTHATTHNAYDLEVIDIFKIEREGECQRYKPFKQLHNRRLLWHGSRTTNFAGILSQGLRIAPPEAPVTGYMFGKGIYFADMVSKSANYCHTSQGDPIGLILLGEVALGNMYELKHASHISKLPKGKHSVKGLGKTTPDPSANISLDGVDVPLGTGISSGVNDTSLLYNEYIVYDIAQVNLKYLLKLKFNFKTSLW

| IC50 (PARP1 (recombinant)) [nM] | IC50 [2] [nM] | IC50 (PARP2 (recombinant)) [nM] | Structure (SMILES) | competition of PARPYnD photoaffinity labeling, in-gel fluorescence and immunoblo [1] |
| --- | --- | --- | --- | --- |
|  |  |  | C[C@H]1Cn2c(nnc2C(C)(F)F)CN1C(=O)c1cccc(C(F)(F)c2n[nH]c(=O)c3ccccc23)c1 [AZ0108] | which was depleted by PARP6 inhibitor AZ0108 |
| 38 | 230 | 6 | C#CCCC1(CCC(=O)Nc2cnc(N3CCN(C(=O)c4cccc(Cc5n[nH]c(=O)c6ccccc56)c4)CC3)c(C#N)c2)N=N1 [PARPYnD] |  |
